“And” between values parts separate entries of the source, which are not always exact repeats. Identical values can stand only once. Toxic doses and inconclusive results are not listed.
System: L1210 leukemia ip in BDF1 mice, survival T/C
Assay: NCI In Vivo Anticancer Drug Screen. Data for tumor model L1210 Leukemia (intraperitoneal) in B6D2F1 (BDF1) mice
Details: endpoint: mean survival time, higher = longer survival
How it was run: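 Transplantable tumor model; survival measured in treated vs vehicle control mice. Value = treated/control.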

[1] = dose: 25.0 mg/kg/injection, schedule: Q04DX003 (ip), vehicle: Klucel (hydroxypropylcellulose) (HPC)
[2] = dose: 50.0 mg/kg/injection, schedule: Q01DX009 (ip), vehicle: Klucel (hydroxypropylcellulose) (HPC)
[3] = dose: 50.0 mg/kg/injection, schedule: Q04DX003 (ip), vehicle: Klucel (hydroxypropylcellulose) (HPC)
[4] = dose: 100.0 mg/kg/injection, schedule: Q01DX009 (ip), vehicle: Klucel (hydroxypropylcellulose) (HPC)
[5] = dose: 100.0 mg/kg/injection, schedule: Q04DX003 (ip), vehicle: Klucel (hydroxypropylcellulose) (HPC)
[6] = dose: 100.0 mg/kg/injection, schedule: Q01DX001 (ip), vehicle: carboxymethylcellulose (CMC)
[7] = dose: 200.0 mg/kg/injection, schedule: Q01DX001 (ip), vehicle: carboxymethylcellulose (CMC)
[8] = dose: 400.0 mg/kg/injection, schedule: Q01DX001 (ip), vehicle: carboxymethylcellulose (CMC)
[9] = dose: 200.0 mg/kg/injection, schedule: Q01DX009 (ip), vehicle: Klucel (hydroxypropylcellulose) (HPC)
[10] = dose: 200.0 mg/kg/injection, schedule: Q04DX003 (ip), vehicle: Klucel (hydroxypropylcellulose) (HPC)
[11] = dose: 400.0 mg/kg/injection, schedule: Q04DX003 (ip), vehicle: Klucel (hydroxypropylcellulose) (HPC)
[12] = dose: 100.0 mg/kg/injection, schedule: Q01DX009 (ip), vehicle: saline with Tween-80

With `CC(C)(C)C1CCC(NC(=O)C(Cl)Cl)CC1` (stereo unspecified) the T/C (dose: 25.0 mg/kg/injection, schedule: Q01DX009 (ip), vehicle: Klucel (hydroxypropylcellulose) (HPC)) was 100 % of control, the T/C [1] was 97 % of control and the T/C [2] was 94 % of control. For the same compound, the T/C [3] was 100 % of control, the T/C [4] was 96 % of control and the T/C [5] was 90 % of control and 92 % of control.

For `Cc1cc(C)c(C[N+](C)(C)C)c(C)c1C`, the T/C (dose: 50.0 mg/kg/injection, schedule: Q01DX001 (ip), vehicle: saline) was 102 % of control.

In the case of `CN(CCO)N=Nc1ccccc1`, the T/C (dose: 6.0 mg/kg/injection, schedule: Q01DX009 (ip), vehicle: other) is reported as 105 % of control, the T/C (dose: 12.0 mg/kg/injection, schedule: Q01DX009 (ip), vehicle: other) is reported as 96 % of control and the T/C (dose: 12.5 mg/kg/injection, schedule: Q01DX009 (ip), vehicle: other) is reported as 112 % of control. For the same compound, the T/C (dose: 18.0 mg/kg/injection, schedule: Q01DX009 (ip), vehicle: other) was 88 % of control and the T/C (dose: 25.0 mg/kg/injection, schedule: Q01DX009 (ip), vehicle: other) was 109 % of control.

`CC(C)(C)C1=CC(C)([N+](=O)[O-])C=C(C(C)(C)C)C1=O` was tested, and the T/C [6] was 88 % of control, the T/C [7] was 89 % of control and the T/C [8] was 88 % of control.

With `O=C(Nc1cccc2ccccc12)Oc1cccc2cccnc12` the T/C (dose: 50.0 mg/kg/injection, schedule: Q01DX001 (ip), vehicle: Klucel (hydroxypropylcellulose) (HPC)) was 96 % of control, the T/C (dose: 100.0 mg/kg/injection, schedule: Q01DX001 (ip), vehicle: Klucel (hydroxypropylcellulose) (HPC)) was 105 % of control and the T/C (dose: 200.0 mg/kg/injection, schedule: Q01DX001 (ip), vehicle: Klucel (hydroxypropylcellulose) (HPC)) was 105 % of control.

In the case of `CC(C)(C)C1CCCC(NC(=O)N(CCCl)N=O)C1` (stereo unspecified), the T/C (dose: 6.0 mg/kg/injection, schedule: Q01DX001 (ip), vehicle: other) is reported as 111 % of control, the T/C (dose: 12.0 mg/kg/injection, schedule: Q01DX001 (ip), vehicle: other) is reported as 108 % of control and the T/C (dose: 46.0 mg/kg/injection, schedule: Q01DX001 (ip), vehicle: other) is reported as 153 % of control. For the same compound, the T/C (dose: 93.0 mg/kg/injection, schedule: Q01DX001 (ip), vehicle: other) was 187 % of control, the T/C (dose: 187.0 mg/kg/injection, schedule: Q01DX001 (ip), vehicle: other) was 238 % of control and the T/C (dose: 250.0 mg/kg/injection, schedule: Q01DX001 (ip), vehicle: other) was 218 % of control. The T/C (dose: 375.0 mg/kg/injection, schedule: Q01DX001 (ip), vehicle: other) was 164 % of control and the T/C (dose: 500.0 mg/kg/injection, schedule: Q01DX001 (ip), vehicle: other) was 118 % of control.

For `O=c1[nH]cc(/C=N/O)c(=O)[nH]1`, the T/C [6] was 106 % of control, the T/C [7] was 106 % of control and the T/C [8] was 101 % of control.

For `Nc1c2ccccc2c[n+]2ccccc12`, the T/C (dose: 50.0 mg/kg/injection, schedule: Q01DX009 (ip), vehicle: saline) was 150 % of control and the T/C (dose: 100.0 mg/kg/injection, schedule: Q01DX009 (ip), vehicle: saline) was 163 % of control.

With `O=C(NC(=S)Nc1cccc(Cl)c1)c1ccccc1` the T/C [4] was 106 % of control, the T/C [5] was 95 % of control and the T/C [9] was 113 % of control. For the same compound, the T/C [10] was 92 % of control and the T/C [11] was 95 % of control.

`NC(=O)c1ccc(NC(=O)CCC(=O)Nc2ccc(C(N)=O)cn2)nc1` was tested, and the T/C (dose: 0.36 mg/kg/injection, schedule: Q01DX Z (ip), vehicle: carboxymethylcellulose (CMC)) was 105 % of control, the T/C (dose: 0.55 mg/kg/injection, schedule: Q01DX Z (ip), vehicle: carboxymethylcellulose (CMC)) was 102 % of control and the T/C (dose: 0.83 mg/kg/injection, schedule: Q01DX Z (ip), vehicle: carboxymethylcellulose (CMC)) was 102 % of control. The T/C (dose: 1.0 mg/kg/injection, schedule: Q01DX Z (ip), vehicle: carboxymethylcellulose (CMC)) was 105 % of control, the T/C (dose: 1.25 mg/kg/injection, schedule: Q01DX Z (ip), vehicle: carboxymethylcellulose (CMC)) was 103 % of control and 114 % of control and the T/C (dose: 2.0 mg/kg/injection, schedule: Q01DX Z (ip), vehicle: carboxymethylcellulose (CMC)) was 107 % of control. For the same compound, the T/C (dose: 2.5 mg/kg/injection, schedule: Q01DX Z (ip), vehicle: carboxymethylcellulose (CMC)) was 110 % of control, the T/C (dose: 3.0 mg/kg/injection, schedule: Q01DX Z (ip), vehicle: carboxymethylcellulose (CMC)) was 95 % of control and the T/C (dose: 4.0 mg/kg/injection, schedule: Q01DX Z (ip), vehicle: carboxymethylcellulose (CMC)) was 104 % of control. For the same compound, the T/C (dose: 5.0 mg/kg/injection, schedule: Q01DX Z (ip), vehicle: carboxymethylcellulose (CMC)) was 124 % of control and 91 % of control and the T/C (dose: 10.0 mg/kg/injection, schedule: Q01DX Z (ip), vehicle: carboxymethylcellulose (CMC)) was 118 % of control.

`O=[N+]([O-])c1ccc(NCc2ccccc2)nc1` was tested, and the T/C (dose: 100.0 mg/kg/injection, schedule: Q04DX002 (ip), vehicle: saline with Tween-80) was 91 % of control, the T/C (dose: 111.0 mg/kg/injection, schedule: Q01DX Z (ip), vehicle: carboxymethylcellulose (CMC)) was 111 % of control and the T/C (dose: 166.7 mg/kg/injection, schedule: Q01DX Z (ip), vehicle: carboxymethylcellulose (CMC)) was 98 % of control. The T/C (dose: 200.0 mg/kg/injection, schedule: Q04DX002 (ip), vehicle: saline with Tween-80) was 97 % of control, the T/C (dose: 250.0 mg/kg/injection, schedule: Q01DX Z (ip), vehicle: carboxymethylcellulose (CMC)) was 101 % of control and the T/C (dose: 375.0 mg/kg/injection, schedule: Q01DX Z (ip), vehicle: carboxymethylcellulose (CMC)) was 100 % of control. The T/C (dose: 400.0 mg/kg/injection, schedule: Q04DX002 (ip), vehicle: saline with Tween-80) was 103 % of control.

With `CCOc1ccccc1C1CCCCC1OS(=O)(=O)c1ccc(C)cc1` (stereo unspecified) the T/C (dose: 50.0 mg/kg/injection, schedule: Q01DX009 (ip), vehicle: acetone) was 92 % of control, the T/C (dose: 100.0 mg/kg/injection, schedule: Q01DX009 (ip), vehicle: acetone) was 94 % of control and 92 % of control and the T/C (dose: 200.0 mg/kg/injection, schedule: Q01DX009 (ip), vehicle: acetone) was 105 % of control and 90 % of control.

In the case of `Nc1[nH]c(=O)ncc1-c1ccccc1Cl`, the T/C (dose: 25.0 mg/kg/injection, schedule: Q01DX009 (ip), vehicle: saline with Tween-80) is reported as 88 % of control, the T/C (dose: 25.0 mg/kg/injection, schedule: Q04DX002 (ip), vehicle: saline with Tween-80) is reported as 92 % of control and 100 % of control and the T/C (dose: 25.0 mg/kg/injection, schedule: Q04DX003 (ip), vehicle: saline with Tween-80) is reported as 93 % of control. For the same compound, the T/C (dose: 50.0 mg/kg/injection, schedule: Q01DX001 (ip), vehicle: saline with Tween-80) was 101 % of control, the T/C (dose: 50.0 mg/kg/injection, schedule: Q01DX009 (ip), vehicle: saline with Tween-80) was 91 % of control and the T/C (dose: 50.0 mg/kg/injection, schedule: Q04DX002 (ip), vehicle: saline with Tween-80) was 101 % of control and 103 % of control. The T/C (dose: 50.0 mg/kg/injection, schedule: Q04DX003 (ip), vehicle: saline with Tween-80) was 92 % of control, the T/C (dose: 100.0 mg/kg/injection, schedule: Q01DX001 (ip), vehicle: saline with Tween-80) was 101 % of control and the T/C [12] was 94 % of control and 91 % of control. For the same compound, the T/C (dose: 100.0 mg/kg/injection, schedule: Q04DX003 (ip), vehicle: saline with Tween-80) was 103 % of control and the T/C (dose: 200.0 mg/kg/injection, schedule: Q04DX003 (ip), vehicle: saline with Tween-80) was 101 % of control.

With `O=C(COC(=O)c1ccccc1O)c1ccc(-c2ccccc2)cc1` the T/C (dose: 100.0 mg/kg/injection, schedule: Q01DX001 (ip), vehicle: saline) was 94 % of control, the T/C (dose: 200.0 mg/kg/injection, schedule: Q01DX001 (ip), vehicle: saline) was 88 % of control and the T/C (dose: 400.0 mg/kg/injection, schedule: Q01DX001 (ip), vehicle: saline) was 88 % of control.

With `C=CCOc1cc(C)cc(C)c1C` the T/C [2] was 95 % of control, the T/C (dose: 85.0 mg/kg/injection, schedule: Q04DX003 (ip), vehicle: Klucel (hydroxypropylcellulose) (HPC)) was 90 % of control and the T/C [4] was 94 % of control. The T/C [5] was 112 % of control, the T/C (dose: 135.0 mg/kg/injection, schedule: Q04DX003 (ip), vehicle: Klucel (hydroxypropylcellulose) (HPC)) was 90 % of control and the T/C [9] was 89 % of control. For the same compound, the T/C [10] was 88 % of control, the T/C (dose: 300.0 mg/kg/injection, schedule: Q04DX003 (ip), vehicle: Klucel (hydroxypropylcellulose) (HPC)) was 90 % of control and the T/C [11] was 120 % of control.

For `C/C(=N\N1CCCCC1)c1ccc(NC(=O)C(Cl)Cl)cc1`, the T/C [12] was 106 % of control, the T/C (dose: 200.0 mg/kg/injection, schedule: Q01DX009 (ip), vehicle: saline with Tween-80) was 97 % of control and the T/C (dose: 400.0 mg/kg/injection, schedule: Q01DX009 (ip), vehicle: saline with Tween-80) was 89 % of control.

With `CCOC(=O)C1(C(=O)OCC)C(C)CC2Nc3ccccc3C(=O)N21` (stereo unspecified) the T/C [1] was 87 % of control, the T/C [3] was 91 % of control and the T/C [5] was 91 % of control.

— PubChem BioAssay AID248 (DTP/NCI, 2004)
